Source: patent US4188485A, “1-[(10,11-Dihydro-5H-dibenzo[a,d]-cyclohepten-5-yl)methyl]-4-substituted piperidines and related compounds” (G. D. Searle & Co., priority 1978, dated 1980)

Legend:
dopamine receptors [1] = target: dopamine receptors (Bos taurus, UniProt P20288); assay: biochemical; format: binding; conditions: 1.6 nM ^3 H-haloperidol, calf caudate membrane homogenate, 37° C., 10 minutes; non-specific binding with 10^-4 M dopamine
dopamine receptors [2] = assay: biochemical; format: binding; conditions: ^3 H-Haloperidol and ^3 H-Spiroperidol versus ^3 H-dopamine sites; compared with clozapine and chloropromazine
dopamine receptors [3] = assay: Receptor Binding Assay, displacement of ^3 H-dopamine binding to calf caudate membranes; conditions: for IC50: read-out: ^3 H-Dopamine (IC50), calf caudate membrane homogenate, 37° C., 10 minutes, non-specific binding with 10^-5 M (+)-Butaclamol
dopamine receptors [4] = assay: Receptor Binding Assay, displacement of ^3 H-Spiroperidol binding to calf caudate membranes; conditions: read-out: ^3 H-Spiroperidol (IC50); 0.15 nM ^3 H-Spiroperidol, calf caudate membrane homogenate, 37° C., 20 minutes; non-specific binding with 10^-5 M (+)-Butaclamol

Sequence of dopamine receptors (Bos taurus, UniProt P20288) (P20288 whole entry): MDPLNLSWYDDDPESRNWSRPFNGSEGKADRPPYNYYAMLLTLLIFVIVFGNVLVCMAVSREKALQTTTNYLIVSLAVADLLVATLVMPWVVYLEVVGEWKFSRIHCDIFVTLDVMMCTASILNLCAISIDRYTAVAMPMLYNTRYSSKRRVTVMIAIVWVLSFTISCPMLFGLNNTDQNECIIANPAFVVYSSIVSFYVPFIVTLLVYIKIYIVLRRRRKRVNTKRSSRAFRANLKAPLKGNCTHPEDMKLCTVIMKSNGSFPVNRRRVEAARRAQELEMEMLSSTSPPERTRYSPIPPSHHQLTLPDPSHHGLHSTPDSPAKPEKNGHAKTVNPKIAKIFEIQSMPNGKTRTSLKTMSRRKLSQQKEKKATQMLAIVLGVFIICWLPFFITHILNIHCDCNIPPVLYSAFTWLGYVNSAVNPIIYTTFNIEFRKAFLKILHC

Row | SMILES | IC50 (dopamine receptors [1]) | IC50 (dopamine receptors [3]) | IC50 (dopamine receptors [4]) | ^3 H-Dopamine, % at 10^-4 (dopamine receptors [3]; at 10^-4, calf caudate membrane homogenate, 37° C., 10 minutes, 100 µM) | antagonist ratios (dopamine receptors [2])
1 | CC(C)(C)C1(O)CCN(CC2c3ccccc3CCc3cc(Cl)ccc32)CC1 (stereo not shown) [Compound B] | 7.5 nM | 880 nM | 270 nM | – | comparable to clozapine and chloropromazine
2 | OC1CCN(CC(c2ccccc2)c2ccccc2)CC1C1(O)CCN(CC(c2ccccc2)c2ccccc2)CC1 (stereo not shown) [Compound J, 1-(2,2-diphenylethyl)-3-[1-(2,2-phenylethyl)-4-hydroxypiperidin-4-yl]-4-piperidinol] | 90 nM | 25000 nM | – | – | comparable to clozapine and chloropromazine
3 | CC(C)(C)C1(O)CCN(CC(c2ccccc2)c2ccccc2)CC1 [Compound H, 4-tert-butyl-1-(2,2-diphenylethyl)-4-piperidinol] | 160 nM | 60000 nM | 3600 nM | – | comparable to clozapine and chloropromazine
4 | CC(C)(C)C1(O)CCN(CC2c3ccccc3CCc3ccccc32)CC1 [Compound A] | 2.4 nM | 15000 nM | 860 nM | – | comparable to clozapine and chloropromazine
5 | CC(C)(C)C1(O)CCN(CC2c3ccccc3Oc3ccccc32)CC1.Cl [Compound F, 4-tert-butyl-1-(xanthen-9-ylmethyl)-4-piperidinol, hydrochloride] | 310 nM | 15000 nM | 5900 nM | – | comparable to clozapine and chloropromazine
6 | CC(C)(C)C1(O)CCN(CC2c3ccccc3CCc3ccc(Br)cc32)CC1.Cl (stereo not shown) [Compound C, 4-tert-butyl-1-[(3-bromo-10,11-dihydro-5H-dibenzo[a,d]cyclohepten-5-yl)methyl]-4-piperidinol hydrochloride] | 280 nM | 1700 nM | 220 nM | – | comparable to clozapine and chloropromazine
7 | Cl.Cl.NC1CCN(CC2c3ccccc3CCc3ccccc32)CC1 [Compound E, 1-[(10,11-dihydro-5H-dibenzo[a,d]cyclohepten-5-yl)methyl]-4-piperidinamine, dihydrochloride] | 2500 nM | – | 30000 nM | 27% | comparable to clozapine and chloropromazine

Continued, in another order:

Row | IC50 (dopamine receptors [1]) | IC50 (dopamine receptors [3]) | IC50 (dopamine receptors [4]) | ^3 H-Dopamine, % at 10^-4 (dopamine receptors [3]; at 10^-4, calf caudate membrane homogenate, 37° C., 10 minutes, 100 µM) | SMILES | antagonist ratios (dopamine receptors [2])
8 | 10000 nM | – | – | – | O=C1CCN(CC(c2ccc(Cl)cc2)c2ccc(Cl)cc2)CC1C1(O)CCN(CC(c2ccc(Cl)cc2)c2ccc(Cl)cc2)CC1 (stereo not shown) [Compound K, 1-[2,2-bis(p-chlorophenyl)ethyl]-3-{1-[2,2-bis(p-chlorophenyl)ethyl]-4-hydroxypiperidin-4-yl}-4-piperidinone] | comparable to clozapine and chloropromazine
9 | 37 nM | 7200 nM | 1500 nM | – | CC(C)(C)C1(O)CCN(CC2c3ccccc3C=Cc3ccccc32)CC1.Cl [Compound D, 4-tert-butyl-1-[(5H-dibenzo[a,d]cyclohepten-5yl)methyl]-4-piperidinol, hydrochloride] | comparable to clozapine and chloropromazine
10 | 500 nM | 27000 nM | – | – | O=C1CCN(CC(c2ccccc2)c2ccccc2)CC1C1(O)CCN(CC(c2ccccc2)c2ccccc2)CC1 (stereo not shown) [Compound I, 1-(2,2-diphenylethyl)-3-[1-(2,2-diphenylethyl)-4-hydroxypiperidin-4-yl]-4-piperidinone] | comparable to clozapine and chloropromazine
11 | 290 nM | 4500 nM | 910 nM | – | CC(C)(C)C1(O)CCN(CC2c3ccccc3Sc3ccccc32)CC1.Cl [Compound G, 4-tert-butyl-1-(thioxanthen-9-ylmethyl)-4-piperidinol, hydrochloride] | comparable to clozapine and chloropromazine
